Values of other authors in patent US20150335678A1, “METHOD OF ACTIVATING STEM CELLS IN AN ANIMAL AND THE USE OF CHLORINE DIOXIDE FOR PREPARING MEDICINES FOR ACTIVATING STEM CELLS IN AN ANIMAL” (priority 2012, published 2015).
Where two headings read alike, the source gives them in different places.

Legend:
rat = conditions: cited from earlier work
mouse = mouse per os; cited from earlier work

For `[Na+].[O-][Cl+][O-]` [NaClO2], the “accumulative toxicity classification of aqueous solution” value (rat; rat, in vivo) is given as “non-obvious accumulative toxic” and the “toxicity classification of aqueous solution” value (rat; rat, in vivo) is given as “actually non-toxic”.

For `[Na+].[O-][Cl+2]([O-])[O-]` [NaClO3], the “accumulative toxicity classification of aqueous solution” value (rat; ClO2 276.5 mg/L, NaClO2 200 mg/L, NaClO3) is given as “non-obvious accumulative toxic” and the “toxicity classification of aqueous solution” value (rat; ClO2 276.5 mg/L, NaClO2 and NaClO3 200 mg/L, ClO2 mixed solution total concentration 553 mg/L) is given as “actually non-toxic”.

In the case of stable chlorine dioxide, the LD50 (mouse) is listed as over 10000 mg/kg.
